Results reported in article PMC5553193 (Journal of the American Chemical Society, 2015).
Where a chain is given by its changes, count along the chain named. Peptide text beside a SMILES is read from it. * marks the point of attachment. X1 = O=C(C=NOCCO[C@H]1O[C@H](CO)[C@@H](O)[C@H](O)[C@@H]1O)*

Columns and labels:
PSA = target: T1, PSA (Pisum sativum, UniProt P02867); experiment: ITC with PSA; type: binding
T1 sequence (P02867 31-211 limits assumed): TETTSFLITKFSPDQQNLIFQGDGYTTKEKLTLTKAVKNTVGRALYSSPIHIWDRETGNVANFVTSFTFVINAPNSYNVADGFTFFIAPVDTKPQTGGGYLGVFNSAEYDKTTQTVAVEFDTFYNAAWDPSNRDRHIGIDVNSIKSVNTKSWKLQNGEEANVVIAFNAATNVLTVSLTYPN
T1 sequence (P02867 218-269 limits assumed): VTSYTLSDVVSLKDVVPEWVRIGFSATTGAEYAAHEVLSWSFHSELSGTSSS

ConA [1] = target: T2, ConA (Canavalia ensiformis, UniProt P02866); type: binding
LcH = target: T3, LcH (Lens culinaris, UniProt P02870); experiment: ITC with LcH; type: binding
T3 sequence (P02870 31-211 limits assumed): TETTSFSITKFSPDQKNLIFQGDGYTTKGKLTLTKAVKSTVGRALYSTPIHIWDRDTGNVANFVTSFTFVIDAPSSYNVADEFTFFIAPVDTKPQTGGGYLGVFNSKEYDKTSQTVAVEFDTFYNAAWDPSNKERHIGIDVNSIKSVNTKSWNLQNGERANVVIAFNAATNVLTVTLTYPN
T3 sequence (P02870 218-269 limits assumed): T1 sequence (P02867 218-269 limits assumed) with S7N, D8E, S11P, Y32F, L38H, S47G

ConA [2] = target: T2, ConA; settings: read-out: KD with ConA; literature value; cited from earlier work
DC-SIGN [3] = target: T4, DC-SIGN (Homo sapiens, UniProt Q9NNX6); settings: read-out: KD with DC-SIGN; literature value; cited from earlier work
T4 sequence (Q9NNX6 1-404): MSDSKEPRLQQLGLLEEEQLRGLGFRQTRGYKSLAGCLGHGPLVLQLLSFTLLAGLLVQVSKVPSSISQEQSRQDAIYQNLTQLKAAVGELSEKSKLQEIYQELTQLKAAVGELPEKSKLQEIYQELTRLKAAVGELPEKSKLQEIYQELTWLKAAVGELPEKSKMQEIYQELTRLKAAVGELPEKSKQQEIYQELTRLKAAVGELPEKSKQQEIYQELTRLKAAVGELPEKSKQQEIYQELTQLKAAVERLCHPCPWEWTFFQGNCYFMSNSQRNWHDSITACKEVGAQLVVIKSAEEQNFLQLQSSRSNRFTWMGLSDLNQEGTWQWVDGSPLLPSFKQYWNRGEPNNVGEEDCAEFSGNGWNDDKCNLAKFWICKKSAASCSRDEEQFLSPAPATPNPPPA

DC-SIGN [4] = target: T4, DC-SIGN; experiment: ESI-MS binding assay with DC-SIGN

**Q.** For `CC(C)C[C@H](NC(=O)[C@H](CC(=O)O)NC(=O)[C@H](Cc1ccc(O)cc1)NC(=O)[C@H](Cc1c[nH]c2ccccc12)NC(=O)C=NOCCO[C@H]1O[C@H](CO)[C@@H](O)[C@H](O)[C@@H]1O)C(=O)N[C@@H](Cc1ccccc1)C(N)=O` [L37, Man-WYDLF] (X1-WYDLF-NH2; N-terminus assumed), which “fold enhancement of binding of monosaccharide moiety by peptide fragment” value (from here on “fold enhancement … by peptide fragment”) (PSA) is on record?
**A.** 2 fold

**Q.** And the “fold enhancement … by peptide fragment” value (ConA [1]; ITC)?
**A.** 35 fold

**Q.** What about the “fold enhancement … by peptide fragment” value (LcH) of the same molecule?
**A.** 2 fold

**Q.** Which Kd (ConA [2]) does the source give for `OC[C@H]1O[C@H](OC[C@H]2O[C@H](O)[C@@H](O)[C@@H](O[C@H]3O[C@H](CO)[C@@H](O)[C@H](O)[C@@H]3O)[C@@H]2O)[C@@H](O)[C@@H](O)[C@@H]1O` [Man3, α-Man-(1→3)-[α-Man-(1→6)]-α-Man] here?
**A.** 2.6 µM

**Q.** What about the Kd (DC-SIGN [3]) of the same molecule?
**A.** 590 µM

**Q.** With `NC(=O)[C@H](CC(=O)O)NC(=O)[C@H](Cc1ccc(O)cc1)NC(=O)[C@H](Cc1c[nH]c2ccccc12)NC(=O)C=NOCCO[C@H]1O[C@H](CO)[C@@H](O)[C@H](O)[C@@H]1O` [L20] as the molecule, how does the “enhanced affinity for DC-SIGN” value (DC-SIGN [4]) read?
**A.** enhanced affinity

**Q.** For `CC[C@H](C)[C@H](NC(=O)[C@H](CC(N)=O)NC(=O)[C@H](CC(=O)O)NC(=O)[C@H](Cc1ccccc1)NC(=O)[C@H](CC(C)C)NC(=O)[C@H](CC(=O)O)NC(=O)[C@H](Cc1ccc(O)cc1)NC(=O)[C@H](Cc1c[nH]c2ccccc12)NC(=O)C=NOCCO[C@H]1O[C@H](CO)[C@@H](O)[C@H](O)[C@@H]1O)C(=O)N[C@@H](CC(N)=O)C(=O)N[C@@H](CO)C(N)=O` [L30, Man-WYDLFDNINS] (X1-WYDLFDNINS-NH2; N-terminus assumed), which “fold enhancement in affinity (lower KD) over MeMan” value (ConA [1]) is on record?
**A.** 33 fold
